Measurements reported in PubChem BioAssay (NCI).
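Assay format: 96-well plates, 48-hour exposure. TGI denotes the concentration required for complete inhibition of growth.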

Columns and labels:
Test in all cases: growth of human tumour cells (NCI), 48 h
IGROV1 ovarian = system: IGROV1 ovarian
MDA-N = system: MDA-N
SW-620 colon = system: SW-620 colon
HCC-2998 colon = system: HCC-2998 colon
MDA-MB-435 = system: MDA-MB-435
MOLT-4 leukemia = system: MOLT-4 leukemia
M14 melanoma = system: M14 melanoma
NCI-H460 lung = system: NCI-H460 lung
SN12C renal = system: SN12C renal
SF-268 CNS = system: SF-268 CNS
HOP-92 NSCLC = system: HOP-92 NSCLC
T-47D breast = system: T-47D breast
HCT-15 colon = system: HCT-15 colon
COLO 205 colon = system: COLO 205 colon
A498 renal = system: A498 renal
RPMI-8226 leukemia = system: RPMI-8226 leukemia

Compound | TGI (IGROV1 ovarian) [µM] | TGI (MDA-N) [µM] | TGI (SW-620 colon) [µM] | TGI (HCC-2998 colon) [µM] | TGI (MDA-MB-435) [µM] | TGI (MOLT-4 leukemia) [µM] | TGI (M14 melanoma) [µM] | TGI (NCI-H460 lung) [µM] | TGI (SN12C renal) [µM] | TGI (SF-268 CNS) [µM] | TGI (HOP-92 NSCLC) [µM] | TGI (T-47D breast) [µM] | TGI (HCT-15 colon) [µM] | TGI (COLO 205 colon) [µM] | TGI (A498 renal) [µM] | TGI (RPMI-8226 leukemia) [µM]
CN1C(=O)C(c2c[nH]c3ccccc23)N(C)C(=O)C1c1c[nH]c2ccccc12 (centres undefined) | > 100 | > 100 | > 100 | > 100 | > 100 | > 100 | > 100 | > 100 | > 100 | > 100 | > 100 | > 100 | > 100 | > 100 | – | –
O=C(O)CCc1cccc2c1oc1c(CCC(=O)O)cccc12 | > 100 | – | > 100 | > 100 | – | > 100 | > 100 | > 100 | > 100 | > 100 | > 100 | – | > 100 | > 100 | > 100 | > 100
Cc1ccc(C)n1-c1ccccc1C1C=CN(C(=O)OC(C)(C)C)C=C1 | > 100 | > 100 | 41.7 | 34 | > 100 | 68.7 | > 100 | 96.9 | > 100 | > 100 | > 100 | – | 45.7 | 32.4 | > 100 | > 100
NC(=O)C1Cc2cc3c(cc21)OCO3 (centres undefined) | > 100 | > 100 | – | > 100 | – | – | > 100 | > 100 | – | > 100 | – | – | > 100 | > 100 | – | –
CC(C)(C)c1ccc(-n2c3nc(=O)n(-c4ccccc4CO)c(=O)c-3cc3ccccc32)cc1 | > 100 | 62.9 | > 100 | > 100 | 99.4 | 57.2 | > 100 | > 100 | > 100 | > 100 | 97.7 | > 100 | > 100 | > 100 | > 100 | –
CC1OC(OC2C(OC(=O)[C@@H]3CC(C)(C)C[C@@H]4C5=CC[C@@H]6[C@@]7(C)C[C@H](O)[C@H](OC8OC(CO)C(O)C(O)C8O)[C@@](C)(CO)C7[C@H](O)C[C@@]6(C)[C@]5(C)C[C@@H](O)[C@H]43)OCC(O)C2O)C(O)C(O)C1O (some centres undefined) | > 15 | – | > 15 | > 15 | > 15 | > 15 | > 15 | > 15 | > 15 | > 15 | > 15 | > 15 | > 15 | > 15 | – | –
COc1ccc(/C=C2\N=C(SC)N(CN3CCCCC3)C2=O)cc1 | > 100 | > 100 | > 100 | – | > 100 | > 100 | > 100 | – | > 100 | > 100 | > 100 | – | > 100 | > 100 | > 100 | > 100
COc1c(Br)cc(/C=C(\C#N)c2cccnc2)cc1Br | > 100 | > 100 | > 100 | > 100 | – | > 100 | > 100 | > 100 | > 100 | > 100 | 75 | – | > 100 | > 100 | – | > 100
COCn1cnc2c(=O)n(-c3ccc(OC)cc3)c(=S)n(-c3ccc(OC)cc3)c21 | > 100 | – | > 100 | > 100 | > 100 | > 100 | > 100 | > 100 | > 100 | > 100 | – | > 100 | > 100 | > 100 | > 100 | > 100
N#CCCN(c1ccc(C=Nc2ccccc2Cl)cc1)S(=O)(=O)c1ccccc1 | > 100 | – | > 100 | > 100 | – | > 100 | > 100 | > 100 | > 100 | > 100 | > 100 | – | > 100 | > 100 | > 100 | > 100
COc1cc([C@H]2CC(=O)C[C@H](c3cc(OC)c(OC)c(OC)c3)C23C(=O)c2ccccc2C3=O)cc(OC)c1OC | > 100 | – | > 100 | > 100 | > 100 | > 100 | > 100 | > 100 | > 100 | > 100 | > 100 | > 100 | > 100 | > 100 | – | > 100
C/C(=N\NC(=O)c1ccncc1)c1ccccc1F | > 10 | > 10 | > 10 | > 10 | – | > 10 | > 10 | > 10 | > 10 | > 10 | > 10 | > 10 | > 10 | > 10 | > 10 | > 10
Cc1ccc(/C=C2\CN(C)CC3C2=NN(c2ccccc2)C3c2ccc(C)cc2)cc1 (centres undefined) | > 100 | > 100 | > 100 | > 100 | > 100 | > 100 | > 100 | > 100 | > 100 | > 100 | > 100 | > 100 | > 100 | > 100 | > 100 | –
CCN(CC)c1c(-c2c(N(CC)CC)c(OC(C)=O)c3sccn3c2=O)c(=O)n2ccsc2c1OC(C)=O | > 100 | > 100 | > 100 | > 100 | > 100 | > 100 | > 100 | > 100 | > 100 | > 100 | > 100 | – | > 100 | > 100 | > 100 | > 100
Cc1ccc(N(C(=O)Nc2ccc(F)c(Cl)c2)C2=NCC(C)S2)cc1 (centres undefined) | > 100 | > 100 | > 100 | – | – | > 100 | – | > 100 | > 100 | > 100 | – | > 100 | > 100 | > 100 | > 100 | –
CC(=O)N1C(NN(C)C)CCN1c1ccccc1 (centres undefined) | > 10 | – | > 10 | > 10 | > 10 | > 10 | > 10 | – | > 10 | > 10 | > 10 | > 10 | > 10 | > 10 | – | > 10
NC1CC(Cl)c2c(Cl)sc(Cl)c21 (centres undefined) | > 100 | > 100 | > 100 | > 100 | > 100 | > 100 | > 100 | > 100 | > 100 | > 100 | > 100 | > 100 | > 100 | > 100 | > 100 | –
